The target of this assay is LSD-1 enzyme (Homo sapiens (Human), UniProt O60341). Put plainly: LANCE LSD1/KDM1A demethylase assay (LSD1 histone demethylase biochemical assay). As to conditions: 1 nM LSD-1 enzyme, 1 hour preincubation at 25° C., Biotin-labeled Histone H3 peptide substrate. On the procedure:
Example A: LSD1 Histone Demethylase Biochemical Assay
LANCE LSD1/KDM1A demethylase assay—10 μL of 1 nM LSD-1 enzyme (ENZO BML-SE544-0050) in the assay buffer (50 mM Tris, pH 7.5, 0.01% Tween-20, 25 mM NaCl, 5 mM DTT) were preincubated for 1 hour at 25° C. with 0.8 μL compound/DMSO dotted in black 384 well polystyrene plates. […] Reactions were stopped by addition of 10 μL 1×LANCE Detection Buffer (PerkinElmer CR97-100) supplemented with 1.5 nM Eu-anti-unmodified H3K4 Antibody (PerkinElmer TRF0404), and 225 nM LANCE Ultra Streptavidin (PerkinElmer TRF102) along with 0.9 mM Tranylcypromine-HCl (Millipore 616431). After stopping the reactions plates were incubated for 30 minutes and read on a PHERAstar FS plate reader (BMG Labtech).
For orientation: In TR-FRET formats the signal depends on donor and acceptor labels being close together.
Broadly, the IC50 is the midpoint of a concentration-inhibition curve. Low values mean higher potency, high ones lower potency. As to `Cc1ccc(-c2c(-c3ccc(C#N)cc3)nc(OC[C@@H]3CCCN(C)C3)n3ccnc23)cc1` [Example 1, 4-(8-(4-methylphenyl)-5-{[(3R)-1-methylpiperidin-3-yl]methoxy}imidazo[1,2-c]pyrimidin-7-yl)benzonitrile], the IC50 was not above 50 nM.

Take `Cc1ccc(-c2c(-c3ccc(C#N)cc3)nc(OC[C@@H]3CCN(C)C3)n3ccnc23)cc1` [Example 2, 4-(8-(4-methylphenyl)-5-{[(3R)-1-methylpyrrolidin-3-yl]methoxy}imidazo[1,2-c]pyrimidin-7-yl)benzonitrile]: the IC50 is 50 to 500 nM.

Compound `COc1ccc(-c2c(-c3ccc(C#N)cc3)nc(OC[C@@H]3CCCN(C)C3)n3ccnc23)cn1` [Example 3, 4-(8-(6-methoxypyridin-3-yl)-5-{[(3R)-1-methylpiperidin-3-yl]methoxy}imidazo[1,2-c]pyrimidin-7-yl)benzonitrile] registered an IC50 not above 50 nM.

The compound `CN1CCC[C@@H](COc2nc(-c3ccc(C#N)cc3)c(-c3ccc(N(C)C)nc3)c3nccn23)C1` [Example 4, 4-(8-[6-(dimethylamino)pyridin-3-yl]-5-{[(3R)-1-methylpiperidin-3-yl]methoxy}imidazo[1,2-c]pyrimidin-7-yl)benzonitrile] displayed an IC50 not above 50 nM.

`CN1CCC[C@@H](COc2nc(-c3ccc(C#N)cc3)c(-c3ccc(N4CCCC4)nc3)c3nccn23)C1` [Example 5, 4-[5-{[(3R)-1-methylpiperidin-3-yl]methoxy}-8-(6-pyrrolidin-1-ylpyridin-3-yl)imidazo[1,2-c]pyrimidin-7-yl]benzonitrile] had an IC50 not above 50 nM.

Regarding `CN1CCC[C@@H](COc2nc(-c3ccc(C#N)cc3)c(-c3ccc4c(c3)CC(=O)N4C)c3nccn23)C1` [Example 6, 4-(8-(1-methyl-2-oxo-2,3-dihydro-1H-indol-5-yl)-5-{[(3R)-1-methylpiperidin-3-yl]methoxy}imidazo[1,2-c]pyrimidin-7-yl)benzonitrile], the IC50 was in the range of 50 to 500 nM.

`CN1CCC[C@@H](COc2nc(-c3ccc(C#N)cc3)c(-c3ccc4c(c3)oc(=O)n4C)c3nccn23)C1` [Example 7, 4-(8-(3-methyl-2-oxo-2,3-dihydro-1,3-benzoxazol-6-yl)-5-{[(3R)-1-methylpiperidin-3-yl]methoxy}imidazo[1,2-c]pyrimidin-7-yl)benzonitrile]: the IC50 is not above 50 nM.

Regarding `CN1CCC[C@@H](COc2nc(-c3ccc(C#N)cc3)c(-c3ccc4c(cnn4C)c3)c3nccn23)C1` [Example 8, 4-(8-(1-methyl-1H-indazol-5-yl)-5-{[(3R)-1-methylpiperidin-3-yl]methoxy}imidazo[1,2-c]pyrimidin-7-yl)benzonitrile], the IC50 was not above 50 nM.

Turning to `CN1CCN(Cc2ccc(-c3c(-c4ccc(C#N)cc4)nc(OC[C@@H]4CCCN(C)C4)n4ccnc34)cc2)CC1` [Example 9, 4-(8-{4-[(4-methylpiperazin-1-yl)methyl]phenyl}-5-{[(3R)-1-methylpiperidin-3-yl]methoxy}imidazo[1,2-c]pyrimidin-7-yl)benzonitrile], the IC50 was not above 50 nM.

As for `CN1CCN(C(=O)Cc2ccc(-c3c(-c4ccc(C#N)cc4)nc(OC[C@@H]4CCCN(C)C4)n4ccnc34)cc2)CC1` [Example 10, 4-(8-{4-[2-(4-methylpiperazin-1-yl)-2-oxoethyl]phenyl}-5-{[(3R)-1-methylpiperidin-3-yl]methoxy}imidazo[1,2-c]pyrimidin-7-yl)benzonitrile], the IC50 is not above 50 nM.

`CN1CCC[C@@H](COc2nc(-c3ccc(C#N)cc3)c(-c3ccc(CCN4CCOCC4)cc3)c3nccn23)C1` [Example 11, 4-{5-{[(3R)-1-methylpiperidin-3-yl]methoxy}-8-[4-(2-morpholin-4-ylethyl)phenyl]imidazo[1,2-c]pyrimidin-7-yl}benzonitrile] returned an IC50 of 50 to 500 nM.

Turning to `CN1CCC[C@@H](COc2nc(-c3ccc(C#N)cc3)c(-c3ccc(CN4CCOCC4)cc3)c3nccn23)C1` [Example 12, 4-{5-{[(3R)-1-methylpiperidin-3-yl]methoxy}-8-[4-(morpholin-4-ylmethyl)phenyl]imidazo[1,2-c]pyrimidin-7-yl}benzonitrile], the IC50 was 50 to 500 nM.

Take `CN1CCC[C@@H](COc2nc(-c3ccc(C#N)cc3)c(-c3ccc(CN4CC[C@H](C#N)C4)cc3)c3nccn23)C1` [Example 13, (3S)-1-[4-(7-(4-cyanophenyl)-5-{[(3R)-1-methylpiperidin-3-yl]methoxy}imidazo[1,2-c]pyrimidin-8-yl)benzyl]pyrrolidine-3-carbonitrile]: the IC50 is not above 50 nM.

`CN1CCC[C@@H](COc2nc(-c3ccc(C#N)cc3)c(-c3cnc4c(c3)OCCN4C)c3nccn23)C1` [Example 14, 4-(8-(4-methyl-3,4-dihydro-2H-pyrido[3,2-b][1,4]oxazin-7-yl)-5-{[(3R)-1-methylpiperidin-3-yl]methoxy}imidazo[1,2-c]pyrimidin-7-yl)benzonitrile] had an IC50 not above 50 nM.

Turning to `CN1CCC[C@@H](COc2nc(-c3ccc(C#N)cc3)c(-c3ccc4c(c3)OCC(=O)N4C)c3nccn23)C1` [Example 15, 4-(8-(4-methyl-3-oxo-3,4-dihydro-2H-1,4-benzoxazin-7-yl)-5-{[(3R)-1-methylpiperidin-3-yl]methoxy}imidazo[1,2-c]pyrimidin-7-yl)benzonitrile], the IC50 was 50 to 500 nM.

The compound `CN1CCC[C@@H](COc2nc(-c3ccc(C#N)cc3)c(-c3ccc(N4CCCC4=O)nc3)c3nccn23)C1` [Example 16, 4-{5-{[(3R)-1-methylpiperidin-3-yl]methoxy}-8-[6-(2-oxopyrrolidin-1-yl)pyridin-3-yl]imidazo[1,2-c]pyrimidin-7-yl}benzonitrile] returned an IC50 of 50 to 500 nM.

`CN1CCC[C@@H](COc2nc(-c3ccc(C#N)cc3)c(-c3ccc4c(c3)ncn4C)c3nccn23)C1` [Example 17, 4-(8-(1-methyl-1H-benzimidazol-5-yl)-5-{[(3R)-1-methylpiperidin-3-yl]methoxy}imidazo[1,2-c]pyrimidin-7-yl)benzonitrile] displayed an IC50 not above 50 nM.

Take `CN1CCC[C@@H](COc2nc(-c3ccc(C#N)cc3)c(-c3ccc4cnn(C)c4c3)c3nccn23)C1` [Example 18, 4-(8-(1-methyl-1H-indazol-6-yl)-5-{[(3R)-1-methylpiperidin-3-yl]methoxy}imidazo[1,2-c]pyrimidin-7-yl)benzonitrile]: the IC50 lay within 50 to 500 nM.

Regarding `CN1CCC[C@@H](COc2nc(-c3ccc(C#N)cc3)c(-c3cnc4c(ccn4C)c3)c3nccn23)C1` [Example 19, 4-[5-{[(3R)-1-methylpiperidin-3-yl]methoxy}-8-(1-methyl-1H-pyrrolo[2,3-b]pyridin-5-yl)imidazo[1,2-c]pyrimidin-7-yl]benzonitrile], the IC50 was not above 50 nM.

`CN1CCC[C@@H](COc2nc(-c3ccc(C#N)cc3)c(-c3ccc4c(c3)CC(C(=O)N(C)C)O4)c3nccn23)C1` (stereo partly drawn) [Example 20, 5-(7-(4-cyanophenyl)-5-{[(3R)-1-methylpiperidin-3-yl]methoxy}imidazo[1,2-c]pyrimidin-8-yl)-N,N-dimethyl-2,3-dihydro-1-benzofuran-2-carboxamide] gave an IC50 not above 50 nM.

In turn, `CN1CC[C@@H](COc2nc(-c3ccc(C#N)cc3)c(-c3ccc(N(C)C)nc3)c3nccn23)C1` [Example 21, 4-(8-[6-(dimethylamino)pyridin-3-yl]-5-{[(3R)-1-methylpyrrolidin-3-yl]methoxy}imidazo[1,2-c]pyrimidin-7-yl)benzonitrile] registered an IC50 of 50 to 500 nM.

Consider `CN1CC[C@@H](COc2nc(-c3ccc(C#N)cc3)c(-c3ccc(N4CCCC4)nc3)c3nccn23)C1` [Example 22, 4-[5-{[(3R)-1-methylpyrrolidin-3-yl]methoxy}-8-(6-pyrrolidin-1-ylpyridin-3-yl)imidazo[1,2-c]pyrimidin-7-yl]benzonitrile], for which the IC50 fell in the range of 50 to 500 nM.

`CN1CC[C@@H](COc2nc(-c3ccc(C#N)cc3)c(-c3ccc4c(c3)CC(=O)N4C)c3nccn23)C1` [Example 23, 4-(8-(1-methyl-2-oxo-2,3-dihydro-1H-indol-5-yl)-5-{[(3R)-1-methylpyrrolidin-3-yl]methoxy}imidazo[1,2-c]pyrimidin-7-yl)benzonitrile] showed an IC50 of 50 to 500 nM.

In turn, `CN1CC[C@@H](COc2nc(-c3ccc(C#N)cc3)c(-c3cnc4c(c3)OCCN4C)c3nccn23)C1` [Example 24, 4-(8-(4-methyl-3,4-dihydro-2H-pyrido[3,2-b][1,4]oxazin-7-yl)-5-{[(3R)-1-methylpyrrolidin-3-yl]methoxy}imidazo[1,2-c]pyrimidin-7-yl)benzonitrile] came in with an IC50 not above 50 nM.

As to `CN1CC[C@@H](COc2nc(-c3ccc(C#N)cc3)c(-c3ccc4c(c3)ncn4C)c3nccn23)C1` [Example 25, 4-(8-(1-methyl-1H-benzimidazol-5-yl)-5-{[(3R)-1-methylpyrrolidin-3-yl]methoxy}imidazo[1,2-c]pyrimidin-7-yl)benzonitrile], the IC50 was 50 to 500 nM.

Compound `CN1CC[C@@H](COc2nc(-c3ccc(C#N)cc3)c(-c3ccc4c(c3)oc(=O)n4C)c3nccn23)C1` [Example 26, 4-(8-(3-methyl-2-oxo-2,3-dihydro-1,3-benzoxazol-6-yl)-5-{[(3R)-1-methylpyrrolidin-3-yl]methoxy}imidazo[1,2-c]pyrimidin-7-yl)benzonitrile] registered an IC50 of 50 to 500 nM.

As to `CN1CC[C@@H](COc2nc(-c3ccc(C#N)cc3)c(-c3ccc4c(cnn4C)c3)c3nccn23)C1` [Example 27, 4-(8-(1-methyl-1H-indazol-5-yl)-5-{[(3R)-1-methylpyrrolidin-3-yl]methoxy}imidazo[1,2-c]pyrimidin-7-yl)benzonitrile], the IC50 was not above 50 nM.

The values above are taken from patent publication US9944647B2 (Incyte Corporation, priority 2015, dated 2018).
